# Tests used:
# [1] = AUC (0 to t) in Sprague-Dawley rat at 2 mg/kg, iv; assay type: ADME, organism-based; design: dose 2 mg/kg, route iv; conditions: in vivo
# [2] = tested on: Human immunodeficiency virus 1; assay: Antiviral activity against HIV-1 E138K mutant infected in human MT4 cells assessed as virus-induced cytopathicity treated for 5 days by MTT assay; assay type: functional, organism-based; conditions: Human immunodeficiency virus 1, MT4, 120 h
# [3] = Clearance in Sprague-Dawley rat at 2 mg/kg, iv; assay type: ADME, organism-based; conditions: in vivo
# [4] = tested on: Human immunodeficiency virus 1; assay: Antiviral activity against HIV-1 harboring L100I mutant infected in human MT4 cells assessed as virus-induced cytopathicity treated for 5 days by MTT assay; assay type: functional, organism-based; conditions: Human immunodeficiency virus 1, MT4, 120 h
# [5] = AUC (0 to infinity) in Sprague-Dawley rat at 2 mg/kg, iv; assay type: ADME, organism-based; design: dose 2 mg/kg, route iv; conditions: in vivo
# [6] = Acute toxicity in Kunming mouse assessed as body weight change at 2000 mg/kg, po measured after 7 days; assay type: organism-based; conditions: in vivo, 168 h, time 7 day
# [7] = tested on: Human immunodeficiency virus 1; assay: Antiviral activity against HIV-1 harboring K103N mutant infected in human MT4 cells assessed as virus-induced cytopathicity treated for 5 days by MTT assay; assay type: functional, organism-based; conditions: Human immunodeficiency virus 1, MT4, 120 h
# [8] = target: T1, Cytochrome P450 1A2 (Homo sapiens, UniProt P05177); assay: Inhibition of CYP1A2 (unknown origin); assay type: ADME
# T1 sequence (P05177 whole entry): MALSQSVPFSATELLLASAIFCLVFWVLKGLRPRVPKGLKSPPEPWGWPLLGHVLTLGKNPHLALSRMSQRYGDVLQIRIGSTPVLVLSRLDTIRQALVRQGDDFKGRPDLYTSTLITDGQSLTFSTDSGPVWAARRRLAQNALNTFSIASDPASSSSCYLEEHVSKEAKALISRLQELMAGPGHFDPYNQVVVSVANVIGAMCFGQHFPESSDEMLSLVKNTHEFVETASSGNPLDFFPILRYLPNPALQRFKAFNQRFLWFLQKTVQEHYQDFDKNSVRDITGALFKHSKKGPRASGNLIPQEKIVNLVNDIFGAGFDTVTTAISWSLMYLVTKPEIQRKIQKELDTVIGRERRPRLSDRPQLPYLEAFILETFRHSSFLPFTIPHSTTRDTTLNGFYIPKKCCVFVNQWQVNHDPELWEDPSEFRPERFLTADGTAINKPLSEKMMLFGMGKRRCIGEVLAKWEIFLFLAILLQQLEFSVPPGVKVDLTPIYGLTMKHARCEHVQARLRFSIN
# [9] = tested on: Human immunodeficiency virus 1; assay: Antiviral activity against wild-type HIV-1 IIIB infected in human MT4 cells assessed as virus-induced cytopathicity treated for 5 days by MTT assay; assay type: functional, organism-based; conditions: Human immunodeficiency virus 1, IIIB, MT4, 120 h
# [10] = Selectivity index, ratio of CC50 for human MT4 cells to EC50 for wild-type HIV-1 IIIB infected in human MT4 cells; assay type: toxicity, cell-based; conditions: read-out: Selectivity Index
# [11] = target: Cytochrome P450 3A4 (Homo sapiens, UniProt P08684); assay: Inhibition of CYP3A4 (unknown origin) using midazolam as substrate; assay type: ADME
# [12] = target: Human immunodeficiency virus type 1 reverse transcriptase (Human immunodeficiency virus 1, UniProt Q72547); assay: Inhibition of wild-type HIV-1 reverse transcriptase assessed as inhibition of biotin-dUTP incorporation
# [13] = tested on: Human immunodeficiency virus 1; assay: Antiviral activity against HIV-1 F227L/V106A mutant infected in human MT4 cells assessed as virus-induced cytopathicity treated for 5 days by MTT assay; assay type: functional, organism-based; conditions: Human immunodeficiency virus 1, MT4, 120 h
# [14] = Cmax in Sprague-Dawley rat at 2 mg/kg, iv; assay type: ADME, organism-based; design: dose 2 mg/kg, route iv; conditions: in vivo
# [15] = Acute toxicity in Kunming mouse assessed as mortality at 2000 mg/kg, po measured after 7 days; assay type: organism-based; conditions: in vivo, 168 h, time 7 day
# [16] = target: Cytochrome P450 2C19 (Homo sapiens, UniProt P33261); assay: Inhibition of CYP2C19 (unknown origin); assay type: ADME
# [17] = tested on: Human immunodeficiency virus 1; assay: Antiviral activity against NNRTI-resistant HIV-1 RES056 infected in human MT4 cells assessed as virus-induced cytopathicity treated for 5 days by MTT assay; assay type: functional, organism-based; conditions: Human immunodeficiency virus 1, RES056, MT4, 120 h
# [18] = AUC (0 to infinity) in Sprague-Dawley rat at 10 mg/kg, po; assay type: ADME, organism-based; design: dose 10 mg/kg, route po; conditions: in vivo
# [19] = AUC (0 to t) in Sprague-Dawley rat at 10 mg/kg, po; assay type: ADME, organism-based; design: dose 10 mg/kg, route po; conditions: in vivo
# [20] = Cytotoxicity against human MT4 cells assessed as reduction in cell viability treated for 5 days by MTT assay; assay type: toxicity, cell-based; conditions: time 5 day
# [21] = target: Cytochrome P450 2D6 (Homo sapiens, UniProt P10635); assay: Inhibition of CYP2D6 (unknown origin); assay type: ADME
# [22] = tested on: Human immunodeficiency virus 1; assay: Antiviral activity against HIV-1 harboring Y188L mutant infected in human MT4 cells assessed as virus-induced cytopathicity treated for 5 days by MTT assay; assay type: functional, organism-based; conditions: Human immunodeficiency virus 1, MT4, 120 h
# [23] = Tmax in Sprague-Dawley rat at 10 mg/kg, po; assay type: ADME, organism-based; conditions: in vivo
# [24] = Tmax in Sprague-Dawley rat at 2 mg/kg, iv; assay type: ADME, organism-based; conditions: in vivo
# [25] = target: Cytochrome P450 2C9 (Homo sapiens, UniProt P11712); assay: Inhibition of CYP2C9 (unknown origin); assay type: ADME
# [26] = Half life in Sprague-Dawley rat at 2 mg/kg, iv; assay type: ADME, organism-based; conditions: in vivo
# [27] = Selectivity index, ratio of CC50 for human MT4 cells to EC50 for NNRTI-resistant HIV-1 RES056 infected in human MT4 cells; assay type: toxicity, cell-based; conditions: read-out: Selectivity Index
# [28] = Acute toxicity in Kunming mouse assessed as poisoning symptoms at 2000 mg/kg, po measured after 7 days; assay type: organism-based; conditions: in vivo, 168 h, time 7 day
# [29] = Oral bioavailability in Sprague-Dawley rat at 10 mg/kg; assay type: ADME, organism-based; conditions: in vivo
# [30] = Cmax in Sprague-Dawley rat at 10 mg/kg, po; assay type: ADME, organism-based; design: dose 10 mg/kg, route po; conditions: in vivo
# [31] = tested on: Human immunodeficiency virus 1; assay: Antiviral activity against HIV-1 harboring Y181C mutant infected in human MT4 cells assessed as virus-induced cytopathicity treated for 5 days by MTT assay; assay type: functional, organism-based; conditions: Human immunodeficiency virus 1, MT4, 120 h
# [32] = Half life in Sprague-Dawley rat at 10 mg/kg, po; assay type: ADME, organism-based; conditions: in vivo
# [33] = tested on: Human immunodeficiency virus 1; assay: Antiviral activity against HIV-1 harboring K103N/Y181C mutant infected in human MT4 cells assessed as virus-induced cytopathicity treated for 5 days by MTT assay; assay type: functional, organism-based; conditions: Human immunodeficiency virus 1, MT4, 120 h
# Cytochrome P450 2D6, sequence (P10635 whole entry): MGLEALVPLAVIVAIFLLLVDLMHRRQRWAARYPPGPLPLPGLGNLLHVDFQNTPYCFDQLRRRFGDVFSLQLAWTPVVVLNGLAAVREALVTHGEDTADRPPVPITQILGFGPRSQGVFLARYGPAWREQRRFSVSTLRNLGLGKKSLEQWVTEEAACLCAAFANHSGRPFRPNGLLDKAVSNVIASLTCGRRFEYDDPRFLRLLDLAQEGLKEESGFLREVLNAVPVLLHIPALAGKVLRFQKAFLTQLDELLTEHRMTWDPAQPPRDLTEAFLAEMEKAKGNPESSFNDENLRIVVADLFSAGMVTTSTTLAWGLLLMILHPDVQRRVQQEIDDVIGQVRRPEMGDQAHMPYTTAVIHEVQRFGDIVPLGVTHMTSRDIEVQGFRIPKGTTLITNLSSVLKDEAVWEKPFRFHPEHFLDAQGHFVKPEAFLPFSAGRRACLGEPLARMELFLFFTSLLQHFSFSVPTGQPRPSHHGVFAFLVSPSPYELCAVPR
# Cytochrome P450 2C19, sequence (P33261 whole entry): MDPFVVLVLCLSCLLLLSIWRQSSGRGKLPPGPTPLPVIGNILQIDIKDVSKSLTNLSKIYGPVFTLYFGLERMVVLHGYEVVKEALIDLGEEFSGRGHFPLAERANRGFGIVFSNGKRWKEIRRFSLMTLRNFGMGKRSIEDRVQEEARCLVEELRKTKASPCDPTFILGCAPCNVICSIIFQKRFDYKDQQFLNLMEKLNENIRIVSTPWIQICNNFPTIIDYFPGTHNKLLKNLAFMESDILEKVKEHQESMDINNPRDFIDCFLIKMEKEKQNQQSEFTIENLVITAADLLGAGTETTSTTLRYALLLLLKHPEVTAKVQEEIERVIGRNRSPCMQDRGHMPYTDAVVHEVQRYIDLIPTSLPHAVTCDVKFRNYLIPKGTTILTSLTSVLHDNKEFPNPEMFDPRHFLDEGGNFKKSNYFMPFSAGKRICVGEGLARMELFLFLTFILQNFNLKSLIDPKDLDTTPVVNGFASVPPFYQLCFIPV
# Cytochrome P450 3A4, sequence (P08684 whole entry): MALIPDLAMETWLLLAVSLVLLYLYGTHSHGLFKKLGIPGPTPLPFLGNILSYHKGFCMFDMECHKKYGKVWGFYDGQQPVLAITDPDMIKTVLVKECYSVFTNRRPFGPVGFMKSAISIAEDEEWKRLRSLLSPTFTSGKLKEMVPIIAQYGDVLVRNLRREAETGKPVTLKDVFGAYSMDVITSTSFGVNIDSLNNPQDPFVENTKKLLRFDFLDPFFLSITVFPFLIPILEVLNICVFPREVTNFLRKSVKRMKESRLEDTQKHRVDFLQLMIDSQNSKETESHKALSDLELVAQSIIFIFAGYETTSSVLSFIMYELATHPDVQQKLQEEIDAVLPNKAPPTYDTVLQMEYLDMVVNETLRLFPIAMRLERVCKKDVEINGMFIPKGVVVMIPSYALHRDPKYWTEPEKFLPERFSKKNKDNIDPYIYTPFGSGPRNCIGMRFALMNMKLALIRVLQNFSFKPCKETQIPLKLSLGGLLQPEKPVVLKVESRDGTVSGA
# Cytochrome P450 2C9, sequence (P11712 whole entry): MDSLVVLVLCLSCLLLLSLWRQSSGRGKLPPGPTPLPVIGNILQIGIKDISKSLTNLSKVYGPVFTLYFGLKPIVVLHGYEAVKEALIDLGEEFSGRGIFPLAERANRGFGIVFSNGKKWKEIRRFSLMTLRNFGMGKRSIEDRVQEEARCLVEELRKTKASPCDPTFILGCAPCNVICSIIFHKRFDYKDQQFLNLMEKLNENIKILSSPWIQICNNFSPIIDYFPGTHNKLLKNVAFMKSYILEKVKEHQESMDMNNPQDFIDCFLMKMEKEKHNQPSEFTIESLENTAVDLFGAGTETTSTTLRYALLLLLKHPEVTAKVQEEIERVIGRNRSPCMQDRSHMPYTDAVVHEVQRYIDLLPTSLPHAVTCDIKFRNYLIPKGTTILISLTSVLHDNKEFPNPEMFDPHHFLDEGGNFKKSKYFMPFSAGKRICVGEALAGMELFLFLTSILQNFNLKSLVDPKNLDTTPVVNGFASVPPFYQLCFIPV
structure (smiles),measurement,setting,value
Cc1cc(/C=C/C#N)cc(C)c1Cc1nc(NC2CCN(Cc3ccc(C(N)=O)cc3)CC2)ncc1-c1cncnc1,AUC(0-t),[1],400 ng·h/mL
same,EC50,[2]; read-out: EC50,9.49 nM
same,EC50,[2]; read-out: pEC50 (converted),9.55 nM
same,clearance,[3],82.7 mL/min/kg
same,EC50,[4]; read-out: EC50,3.43 nM
same,EC50,[4]; read-out: pEC50 (converted),3.47 nM
same,AUC(0-inf),[5],403 ng·h/mL
same,Activity,[6],Non-Toxic
same,EC50,[7]; read-out: EC50,4.77 nM
same,EC50,[7]; read-out: pEC50 (converted),4.79 nM
same,IC50,[8],> 50000 nM
same,EC50,[9],4.95 nM
same,selectivity ratio,[10],4630
same,IC50,[11],10900 nM
same,EC50,[12],4.9 nM
same,IC50,[12],121 nM
same,EC50,[13]; read-out: EC50,11.8 nM
same,EC50,[13]; read-out: pEC50 (converted),12 nM
same,Cmax,[14],587 ng/mL
same,Activity,[15],Non-Toxic
same,IC50,[16],> 50000 nM
same,EC50,[17],10.1 nM
same,AUC(0-inf),[18],642 ng·h/mL
same,AUC(0-t),[19],654 ng·h/mL
same,CC50 at 120 h,[20],22800 nM
same,IC50,[21],42500 nM
same,EC50,[22]; read-out: EC50,15.3 nM
same,EC50,[22]; read-out: pEC50 (converted),15.5 nM
same,Tmax,[23],2 h
same,Tmax,[24],1.98 min
same,IC50,[25],18900 nM
same,half-life,[26],1.33 h
same,selectivity ratio,[27],2270
same,Activity,[28],Non-Toxic
same,bioavailability,[29],31.8%
same,Cmax,[30],252 ng/mL
same,EC50,[31]; read-out: EC50,5.88 nM
same,EC50,[31]; read-out: pEC50 (converted),5.89 nM
same,half-life,[32],1.2 h
same,EC50,[33],10 nM
